Results on 28 compounds are retold here after patent US9701664B2, “Fused 1,4-dihydrodioxin derivatives as inhibitors of heat shock transcription factor 1” (Cancer Research Technology Limited, priority 2013, dated 2017).

For test [1], the system named is HSP72 in U2OS cells. Nature of the test: Cell-based ELISA (Cellisa) assay, U2OS cells: inhibition of 17-AAG-induced HSP72. Particulars: U2OS cells (Examples 1-168). On the procedure: U2OS cells (5-8×10^4 cells/mL) or SK-OV-3 cells (5-8×10^4 cells/mL) were seeded into 96-well plates and incubated at 37° C. for 48 h. Compounds were then added at a range of concentrations and incubated for 1 h before addition of 17-AAG (250 nM). Cells were then incubated for 18 h. The medium was removed washed 2× with PBS and cells were then fixed with fixing solution (4% paraformaldehyde, 0.3% TritonX-100 in PBS) for 30 min at 4° C. The plates were then washed 2× with PBS before blocking with 5% milk for 30 min at 37° C. After washing the plates 4× with 0.1% Tween-20/deionised water, HSP72 antibody (SPA-810, Enzo Life) was added for 1.5 h at 37° C. Following 4× washes, the plates were incubated with europium-labelled anti-mouse antibody (0.6 ug/ml) in Delfia assay buffer (Perkin Elmer) for 1 h at 37° C. After washing the plates, Delfia enhancement solution was added, shaken for 10 min before reading in the Envision plate reader (Perkin-Elmer) with excitation at 340 nm and emission at 615 nm. The plates were washed again before protein determination using the bicinchoninic acid assay (BCA assay, Pierce Biotechnology). The europium counts were normalised for the amount of protein in each well. The 50% inhibitory concentration value of the compound was then calculated.
In general terms: An ELISA detects its analyte on a solid surface through an enzyme-linked reagent.

The test system of test [2] is U2OS cells. Nature of the test: Titre Blue cell viability assay, U2OS cells. Format: cell-based.

pIC50: −log10 of the molar value. Read-outs that look alike come from different tables or passages of the source.

“2-(2-aminoethoxy)-N-(5-(2,3-dihydrobenzo[b][1,4]dioxine-6-carboxamido)-2-methyl)phenyl)quinoline-6-carboxamide [Example 89]”: the pIC50 is 7.89 in test [1] and 7.82 in test [2]. With `COCCOc1ccc2cc(C(=O)Nc3cc(NC(=O)c4ccc5c(c4)OCCO5)ccc3C)ccc2n1` [Example 3, N-(5-(2,3-dihydrobenzo[b][1,4]dioxine-6-carboxamido)-2-methylphenyl)-2-(2-methoxyethoxy)quinoline-6-carboxamide], the pIC50 in test [1] (Homo sapiens) was 8.15; in test [2] (Homo sapiens, U2OS), 7.54. Taken in the same sequence, the figures for `Cc1ccc(NC(=O)c2ccc3c(c2)OCCO3)cc1NC(=O)c1ccc2oc(=O)ccc2c1` [Example 4, N-(4-methyl-3-(2-oxo-2H-chromene-6-carboxamido)phenyl)-2,3-dihydrobenzo[b][1,4]dioxine-6-carboxamide] were 8.00 and 7.74.

As for `COc1ccc(C(=O)Nc2cc(NC(=O)c3ccc4c(c3)OCCO4)ccc2C)cc1OC` [Example 5, N-(3-(3,4-dimethoxybenzamido)-4-methylphenyl)-2,3-dihydrobenzo[b][1,4]dioxine-6-carboxamide], the negative-log IC50 (pIC50) in test [1] (Homo sapiens) was 7.28; in test [2] (Homo sapiens, U2OS) it was 7.33. Taken in the same sequence, the figures for `Cc1ccc(NC(=O)c2ccc3c(c2)OCCO3)cc1NC(=O)c1ccc2c(c1)CCO2` [Example 6, N-(3-(2,3-dihydrobenzofuran-5-carboxamido)-4-methylphenyl)-2,3-dihydrobenzo[b][1,4]dioxine-6-carboxamide] were 7.77 and 7.11. Take `Cc1ccc(NC(=O)c2ccc3c(c2)OCCO3)cc1NC(=O)c1ccc2c(c1)CCN2C` [Example 7, N-(5-(2,3-dihydrobenzo[b][1,4]dioxine-6-carboxamido)-2-methylphenyl)-1-methylindoline-5-carboxamide]: the negative-log IC50 (pIC50) in test [1] (Homo sapiens) is 7.26; in test [2] (Homo sapiens, U2OS), 7.43. As to `Cc1ccc(NC(=O)c2ccc3c(c2)OCCO3)cc1NC(=O)c1ccc2c(c1)COC2=O` [Example 8, N-(4-methyl-3-(1-oxo-1,3-dihydroisobenzofuran-5-carboxamido)phenyl)-2,3-dihydrobenzo[b][1,4]dioxine-6-carboxamide], the negative-log IC50 (pIC50) in test [1] (Homo sapiens) was 6.69; in test [2] (Homo sapiens, U2OS) it was 6.97. The like results for `Cc1ccc(NC(=O)c2ccc3c(c2)OCCO3)cc1NC(=O)c1ccc2c(c1)CCCO2` [Example 9, N-(3-(chroman-6-carboxamido)-4-methylphenyl)-2,3-dihydrobenzo[b][1,4]dioxine-6-carboxamide] were, in that order, 7.66 and 7.05.

In the case of `Cc1ccc(NC(=O)c2ccc3c(c2)OCCO3)cc1NC(=O)c1ccc2ncncc2c1` [Example 10, N-(5-(2,3-dihydrobenzo[b][1,4]dioxine-6-carboxamido)-2-methylphenyl)quinazoline-6-carboxamide], the pIC50 in test [1] (Homo sapiens) is 7.54; in test [2] (Homo sapiens, U2OS), 7.82. The like results for `COc1ccnc2ccc(C(=O)Nc3cc(NC(=O)c4ccc5c(c4)OCCO5)ccc3C)cc12` [Example 11, N-(5-(2,3-dihydrobenzo[b][1,4]dioxine-6-carboxamido)-2-methylphenyl)-4-methoxyquinoline-6-carboxamide] were, in that order, 7.42 and 7.02. Take `Cc1ccc(NC(=O)c2ccc3c(c2)OCCO3)cc1NC(=O)c1ccc(OCc2cscn2)nc1` [Example 13, N-(5-(2,3-dihydrobenzo[b][1,4]dioxine-6-carboxamido)-2-methylphenyl)-6-(thiazol-4-ylmethoxy)nicotinamide]: the pIC50 in test [1] (Homo sapiens) is 6.58; in test [2] (Homo sapiens, U2OS), 6.66. The like results for `Cc1ccc(NC(=O)c2ccc3c(c2)OCCO3)cc1NC(=O)c1ccc2c(c1)CC(C)O2` (stereo not shown) [Example 14, N-(4-methyl-3-(2-methyl-2,3-dihydrobenzofuran-5-carboxamido)phenyl)-2,3-dihydrobenzo[b][1,4]dioxine-6-carboxamide] were, in that order, 7.09 and 7.03. Taken in the same sequence, the figures for `Cc1ccc(NC(=O)c2ccc3c(c2)OCCO3)cc1NC(=O)c1ccc2c(c1)COC2` [Example 15, N-(3-(1,3-dihydroisobenzofuran-5-carboxamido)-4-methylphenyl)-2,3-dihydrobenzo[b][1,4]dioxine-6-carboxamide] were 7.12 and 7.12.

For the compound `Cc1ccc(NC(=O)c2ccc3c(c2)OCCO3)cc1NC(=O)c1ccc2c(ccn2C)c1` [Example 16, N-(5-(2,3-dihydrobenzo[b][1,4]dioxine-6-carboxamido)-2-methylphenyl)-1-methyl-1H-indole-5-carboxamide], the pIC50 in test [1] (Homo sapiens) was 7.03; in test [2] (Homo sapiens, U2OS), 7.51. Taken in the same sequence, the figures for `Cc1ccc(NC(=O)c2ccc3c(c2)OCCO3)cc1NC(=O)c1ccc2occc2c1` [Example 17, N-(3-(benzofuran-5-carboxamido)-4-methylphenyl)-2,3-dihydrobenzo[b][1,4]dioxine-6-carboxamide] were 7.01 and 7.14.

Take `Cc1ccc(NC(=O)c2ccc3c(c2)OCCO3)cc1NC(=O)c1ccc2nc(C(F)(F)F)[nH]c2c1` [Example 90, N-(5-(2,3-dihydrobenzo[b][1,4]dioxine-6-carboxamido)-2-methylphenyl)-2-(trifluoromethyl)-1H-benzo[d]imidazole-6-carboxamide]: the negative-log IC50 (pIC50) in test [2] (Homo sapiens, U2OS) is 5.86. In the case of `Cc1ccc(NC(=O)c2ccc3c(c2)OCCO3)cc1NC(=O)c1ccc(Nc2cccc(OC3CCN(C)CC3)c2)nc1` [Example 121, N-(5-(2,3-dihydrobenzo[b][1,4]dioxine-6-carboxamido)-2-methylphenyl)-6-(3-(1-methylpiperidin-4-yloxy)phenylamino)nicotinamide], in test [2] (Homo sapiens, U2OS), the pIC50 was 6.47.

On to `Cc1ccc2cc(C(=O)Nc3cc(NC(=O)c4cc5c(cc4F)OCCO5)ccc3C)ccc2n1` [Example 130, N-(5-(7-fluoro-2,3-dihydrobenzo[b][1,4]dioxine-6-carboxamido)-2-methylphenyl)-2-methylquinoline-6-carboxamide], for which the pIC50 in test [1] (Homo sapiens) was 6.81. Still for that read-out and setting: under `Cc1ccc2cc(C(=O)Nc3cc(NC(=O)c4ccc5c(c4)OCCCO5)ccc3C)ccc2n1` [Example 132, N-(5-(3,4-dihydro-2H-benzo[b][1,4]dioxepine-7-carboxamido)-2-methylphenyl)-2-methylquinoline-6-carboxamide] stands 6.65; under `Cc1ccc(NC(=O)c2ccc3c(c2)OCCO3)cc1NC(=O)c1ccc2nc(C(C)O)ccc2c1` (stereo not shown) [Example 142, N-(5-(2,3-dihydrobenzo[b][1,4]dioxine-6-carboxamido)-2-methylphenyl)-2-(1-hydroxyethyl)quinoline-6-carboxamide], 7.29; under `COC(C)c1ccc2cc(C(=O)Nc3cc(NC(=O)c4ccc5c(c4)OCCO5)ccc3C)ccc2n1` (stereo not shown) [Example 153, N-(5-(2,3-dihydrobenzo[b][1,4]dioxine-6-carboxamido)-2-methylphenyl)-2-(1-methoxyethyl)quinoline-6-carboxamide], 6.85. The same measure, in the same setting: under `Cc1ccc(NC(=O)c2ccc3c(c2)OCCO3)cc1NC(=O)c1ccc2c(c1)CC[C@H](C)N2` [Example 154, (S)—N-(5-(2,3-dihydrobenzo[b][1,4]dioxine-6-carboxamido)-2-methylphenyl)-2-methyl-1,2,3,4-tetrahydroquinoline-6-carboxamide] stands 6.84. Still for that read-out and setting: to `Cc1ccc(NC(=O)c2ccc3c(c2)OCCO3)cc1NC(=O)c1ccc2c(c1)CC[C@@H](C)N2` [Example 155, (R)—N-(5-(2,3-dihydrobenzo[b][1,4]dioxine-6-carboxamido)-2-methylphenyl)-2-methyl-1,2,3,4-tetrahydroquinoline-6-carboxamide] belongs 6.64; to `Cc1ccc(NC(=O)c2ccc3c(c2)OCCO3)cc1NC(=O)c1cnc2cccc(CCO)c2c1` [Example 157, N-(5-(2,3-dihydrobenzo[b][1,4]dioxine-6-carboxamido)-2-methylphenyl)-5-(2-hydroxyethyl)quinoline-3-carboxamide], 6.66; to `Cc1ccc(NC(=O)c2ccc3c(c2)OCCO3)cc1NC(=O)c1ccc2c(c1)CCC(C)N2C` (stereo not shown) [Example 159, N-(5-(2,3-dihydrobenzo[b][1,4]dioxine-6-carboxamido)-2-methylphenyl)-1,2-dimethyl-1,2,3,4-tetrahydroquinoline-6-carboxamide], 6.46.

In turn, `COCCOc1cc(C(=O)Nc2cc(NC(=O)c3ccc4c(c3)OCCO4)ccc2C)cc2cccnc12` [Example 160, N-(5-(2,3-dihydrobenzo[b][1,4]dioxine-6-carboxamido)-2-methylphenyl)-8-(2-methoxyethoxy)quinoline-6-carboxamide] showed a negative logarithm of the IC50 (pIC50) in test [1] (Homo sapiens) of 6.42. For the compound `Cc1ccc(NC(=O)c2ccc3c(c2)OCCO3)cc1NC(=O)c1cc(N(C)CCN(C)C)c2ncccc2c1` [Example 162, N-(5-(2,3-dihydrobenzo[b][1,4]dioxine-6-carboxamido)-2-methylphenyl)-8-((2-(dimethylamino)ethyl)(methyl)amino)quinoline-6-carboxamide], in test [1] (Homo sapiens), the pIC50 is 6.01. Regarding “N-(5-(2,3-dihydrobenzo[b][1,4]dioxine-6-carboxamido)-2-methyl)phenyl)-2-methyl-4-(2-(pyrrolidin-1-yl)ethoxy)quinoline-6-carboxamide [Example 120]”, in test [1], the negative-log IC50 (pIC50) was 5.56.

The term pIC50 denotes the negative decadic logarithm of the IC50, by convention in mol/L.
